Data on 39 molecules can be found in patent publication US11155523B2, “Biphenyl compound as CCR2/CCR5 receptor antagonist” (Medshine Discovery Inc., priority 2016, dated 2021).

SMILES strings stand for the structures.

One assay deals with T1, CCR2 (Homo sapiens, UniProt P41597).
T1 construct: expressed in transfected cells; host or cells: HEK293, clone C7, passage P6
Briefly: CCR2 in vitro test: intracellular calcium signal detected by FLIPR. It is filed as cell-based. The note with it: HEK293 cells expressing CCR2, agonist MCP-1 at EC80, calcium signal. The method, then:
(§1) Experimental Example 1: CCR2/CCR5 In Vitro Test
(§2) The intracellular calcium signal was detected by FLIPR, and the IC50 value of the compound was used as an index to evaluate the inhibitory effect of the compound on CCR2 and CCR5 receptors.
(§3) 1. Cell line: The cells were inoculated and incubated in a 5% CO2 incubator at 37° C. overnight.
(§4) CCR2/CCR5 density: 1 M (20 k/well)
(§5) 2. Reagents: Fluo-4 Direct, (Invitrogen, Cat #F10471)
(§6) The compound was dissolved in DMSO to prepare a 10 mM solution, and the compound solution was placed in a nitrogen box.
(§7) Agonist reference compounds:
(§8) Preparation of probenecid in FLIPR assay buffer: 1 mL of FLIPR assay buffer was added to […] of probenecid to prepare a 250 mM solution, which is prepared fresh daily.
(§9) 2× (8 μM) Fluo-4 Direct™ Loading Buffer (per 10 mL) • Thaw a bottle of Fluo-4 Direct™ crystal (F10471). • Add 10 mL of FLIPR assay buffer to the vial. • Add 0.2 mL of probenecid to each 10 mL of Fluo-Direct. The final concentration of the assay was 2.5 mM. • Rotate it and place for >5 minutes (in absence of light). • Prepare fresh daily.
(§10) MCP-1 was diluted in FLIPR assay buffer 1:2 into 10 points, starting at 0.5 uM (final 100 nM). RANTES was diluted in FLIPR assay buffer 1:3 into 10 points, starting at 0.5 uM (final 100 nM). 20 uL of serially diluted compound buffer was added to each well of the DRC plate according to the compound plate map.
(§11) Standard compound was diluted in DMSO 1:3 into 11 points, starting at 1 mM. Test compound was diluted in DMSO 1:3 into 11 points, starting at 2 mM. 250 nL of compound solution was transferred into a cell plate using Echo (Greiner #781946).
(§12) (c) Take the cell plate out of the incubator, and gently dispense 20 uL of 2× Fluo-4 Direct wash-free loading buffer into a 384-well cell culture plate using a pipette. The final cell plate is 40 μL in volume.
(§13) (d) Incubate for 50 minutes at 37° C. under 5% CO2, and for 10 minutes at room temperature.
(§14) (e) Take the cell plate out of the incubator, and place it in FLIPR. Place the composite plate and the tip box in FLIPR.
(§15) (f) For DRC plate: • 1) Run the program on FLIPRTETRA. • 2) Read the fluorescent signal. • 3) Transfer 10 μL of compound from the DRC plate to the cell plate. • 4) Read the fluorescent signal. • 5) Calculate the “maximum−minimum” from Read 90 to the maximum allowed. Use FLIPR to calculate the EC80 value of each cell line. • 6) Prepare 5×EC80 concentration of the agonist reference compound.
(§16) (g) For the composite plate (1-add): • 1) Run the program on FLIPRTETRA. • 2) Transfer 10 μl, of 5×EC80 concentration of the agonist reference compound from the composite plate to the cell plate. • 3) Read the fluorescent signal. • 4) Calculate the “maximum−minimum” from Read 90 to the maximum allowed.
(§17) (h) Analyze the data using Prism, and calculate the IC50 value of the compound.

The next assay addresses T2, CCR5 (Homo sapiens, UniProt P51681).
T2 construct: expressed in transfected cells; host or cells: HEK293, clone C13, passage P4
As to the kind of experiment: CCR5 in vitro test: intracellular calcium signal detected by FLIPR. It is filed as cell-based. The note with it: HEK293 cells expressing CCR5, agonist RANTES at EC80, calcium signal. The protocol:
as §1, §2, §3, §4, §5, §6, §7, §8, §9, §10, §11, §12, §13, §14, §15, §16, §17

T2 sequence (P51681 whole entry, species assumed): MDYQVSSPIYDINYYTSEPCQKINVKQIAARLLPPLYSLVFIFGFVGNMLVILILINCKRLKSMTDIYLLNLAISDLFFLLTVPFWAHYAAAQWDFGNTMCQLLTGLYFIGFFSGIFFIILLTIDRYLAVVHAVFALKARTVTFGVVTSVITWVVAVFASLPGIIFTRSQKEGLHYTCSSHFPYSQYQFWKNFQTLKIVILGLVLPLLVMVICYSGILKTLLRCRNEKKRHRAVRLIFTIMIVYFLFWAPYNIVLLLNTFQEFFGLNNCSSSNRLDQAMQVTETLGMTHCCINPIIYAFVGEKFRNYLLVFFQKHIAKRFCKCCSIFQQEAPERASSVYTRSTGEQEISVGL
T1 sequence (P41597 whole entry, species assumed): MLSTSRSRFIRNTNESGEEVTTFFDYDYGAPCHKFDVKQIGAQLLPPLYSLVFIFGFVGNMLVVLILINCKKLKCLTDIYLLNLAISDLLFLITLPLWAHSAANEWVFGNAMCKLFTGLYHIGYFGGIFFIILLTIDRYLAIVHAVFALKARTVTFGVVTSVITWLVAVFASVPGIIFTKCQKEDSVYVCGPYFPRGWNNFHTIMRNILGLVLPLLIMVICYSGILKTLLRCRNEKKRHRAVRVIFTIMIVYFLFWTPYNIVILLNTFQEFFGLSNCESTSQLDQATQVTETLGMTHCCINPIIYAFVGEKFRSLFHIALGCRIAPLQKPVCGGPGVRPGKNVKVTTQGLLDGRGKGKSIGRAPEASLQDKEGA

For `CCCCOCCOc1ccc(-c2cccc(/C=C/C(=O)Nc3ccc([S@@+]([O-])Cc4cncn4CCC)cc3)c2)cc1` [WX001], the IC50 on CCR2 stood at 29.9 nM; on CCR5 it was 9.3 nM. Regarding `CCCn1cncc1C[S@+]([O-])c1ccc(NC(=O)/C=C/c2cccc(-c3ccc(OC)cc3)c2)cc1` [WX002], the IC50 at CCR2 was 319 nM; at CCR5 it was 113 nM.

For `CCCCOCCOc1ccc(-c2ccc(F)c(/C=C/C(=O)Nc3ccc([S@@+]([O-])Cc4cncn4CCC)cc3)c2)cc1` [WX003], the half-inhibitory concentration (IC50) on CCR2 came out at 21.6 nM; at CCR5 it was 3 nM. The matching figures for `CCCn1cncc1C[S@+]([O-])c1ccc(NC(=O)/C=C/c2cccc(-c3ccc(OCC)cc3)c2)cc1` [WX004]: 153 nM and 7.1 nM. As to `CCCCOCCOc1ccc(-c2ccc(CC)c(/C=C/C(=O)Nc3ccc([S@@+]([O-])Cc4cncn4CCC)cc3)c2)cc1` [WX005], the half-maximal inhibitory concentration (IC50) was 12.1 nM on CCR2 and 3.4 nM on CCR5. The matching figures for `CCCCOCCOc1ccc(-c2ccc(C(C)C)c(/C=C/C(=O)Nc3ccc([S@@+]([O-])Cc4cncn4CCC)cc3)c2)cc1` [WX006]: 32.1 nM and 3.3 nM. For `CCCn1cncc1C[S@+]([O-])c1ccc(NC(=O)/C=C/c2cccc(-c3ccc(OC(C)C)cc3)c2)cc1` [WX007] the same measures were 65.2 nM and 6.4 nM. The matching figures for `CCCCOCCOc1ccc(-c2cccc(/C=C(\C)C(=O)Nc3ccc([S@@+]([O-])Cc4cncn4CCC)cc3)c2)cc1` [WX008]: 17.3 nM and 1.5 nM. For the molecule `CCCCOc1ccc(-c2cccc(/C=C/C(=O)Nc3ccc([S@@+]([O-])Cc4cncn4CCC)cc3)c2)cc1` [WX009], the IC50 is 63.2 nM at CCR2 and 9.4 nM on CCR5.

Consider `CCCCOCCOc1ccc(-c2cccc(/C=C/C(=O)Nc3ccc([S@@+]([O-])Cc4nncn4CCC)cc3)c2)cc1` [WX010], for which the half-maximal inhibitory concentration (IC50) at CCR2 came to 214 nM; at CCR5 it was 17.2 nM. As for `CCCCOCCOc1ccc(-c2ccc(C)c(/C=C/C(=O)Nc3ccc([S@@+]([O-])Cc4cncn4CCC)cc3)c2)cc1` [WX011], the values for the IC50 on CCR2 and at CCR5 were 61 nM and 2.6 nM, respectively. As for `CCCCOCCOc1ccc(-c2cccc(/C(C)=C/C(=O)Nc3ccc([S@@+]([O-])Cc4cncn4CCC)cc3)c2)cc1` [WX012], the 50% inhibitory concentration (IC50) at CCR2 was determined as 51 nM; at CCR5 it was 5.4 nM. The matching figures for `CCCn1cncc1C[S@+]([O-])c1ccc(NC(=O)/C=C/c2cccc(-c3ccc(OCCOC)cc3)c2)cc1` [WX013]: 984 nM and 14.2 nM. On to `CCCCOCCOc1ccc(-c2ccc(F)c(/C(C)=C/C(=O)Nc3ccc([S@@+]([O-])Cc4cncn4CCC)cc3)c2)cc1` [WX014], for which the 50% inhibitory concentration (IC50) was 258 nM on CCR2 and 7.9 nM on CCR5.

Take `CCCOc1ccc(-c2cccc(/C=C(\C)C(=O)Nc3ccc([S+]([O-])Cc4nncn4CCC)cc3)c2)cc1` (centres unmarked) [WX015]: the IC50 on CCR2 is 62 nM; at CCR5, 65.1 nM. For the molecule `CCCCOCCOc1ccc(-c2ccc(Cl)c(/C=C/C(=O)Nc3ccc([S@@+]([O-])Cc4cncn4CCC)cc3)c2)cc1` [WX016], the results for the IC50 on CCR2 and on CCR5 were 75.1 nM and 4.5 nM, respectively. With `CCCCOc1ccc(-c2ccc(OC(F)F)c(/C=C/C(=O)Nc3ccc([S@@+]([O-])Cc4cncn4CCC)cc3)c2)cc1` [WX018], the IC50 was found to be 43.5 nM at CCR2 and 7.3 nM at CCR5. The matching figures for `CCCCOCCOc1ccc(-c2cccc(/C=C/C(=O)Nc3ccc([S+]([O-])Cc4cncn4CC)cc3)c2)cc1` (centres unmarked) [WX019]: 9.3 nM and 50.9 nM.

`CCCCOc1ccc(-c2ccc(Cl)c(/C=C/C(=O)Nc3ccc([S+]([O-])Cc4cncn4CC)cc3)c2)cc1` (centres unmarked) [WX020]: the IC50 turned out to be 68.1 nM at CCR2 and 8.2 nM on CCR5. For `CCCCOc1ccc(-c2ccc(Cl)c(/C=C/C(=O)Nc3ccc([S+]([O-])Cc4cncn4CC4CC4)cc3)c2)cc1` (centres unmarked) [WX021] the same measures were 64.5 nM and 8.8 nM. `CCCn1cncc1C[S@+]([O-])c1ccc(NC(=O)/C=C/c2cc(-c3ccc(OCCCF)cc3)ccc2Cl)cc1` [WX022]: the IC50 on CCR2 turned out to be 205 nM; at CCR5 it was 10.1 nM.

With `CCCCOCCOc1ccc(-c2cccc(/C=C/C(=O)Nc3ccc([S+]([O-])Cc4cncn4CC4CC4)cc3)c2)cc1` (centres unmarked) [WX023], the values for the IC50 on CCR2 and on CCR5 were 37.1 nM and 53.3 nM, respectively. The matching figures for `CCCCOc1ccc(-c2ccc(OCCCF)c(/C=C/C(=O)Nc3ccc([S@@+]([O-])Cc4cncn4CCC)cc3)c2)cc1` [WX024]: 63.1 nM and 1.3 nM. For `CCCCOc1ccc(-c2ccc(Cl)c(/C=C/C(=O)Nc3ccc([S@@+]([O-])Cc4cncn4CCC)cc3)c2)cc1` [WX025] the same measures were 127 nM and 7.4 nM. In the case of `CCCCOc1ccc(-c2ccc(OCC(F)F)c(/C=C/C(=O)Nc3ccc([S@@+]([O-])Cc4cncn4CCC)cc3)c2)cc1` [WX026], the IC50 at CCR2 is 175 nM; at CCR5 it was 3.2 nM.

As for `CCCCOc1ccc(-c2ccc(Cl)c(/C=C/C(=O)Nc3ccc([S+]([O-])Cc4cncn4CCCC)cc3)c2)cc1` (centres unmarked) [WX027], the results for the IC50 on CCR2 and at CCR5 were 207 nM and 13.6 nM, respectively. For `CCCCOCCOc1ccc(-c2cccc(/C=C/C(=O)Nc3ccc([S+]([O-])Cc4cncn4CCCC)cc3)c2)cc1` (centres unmarked) [WX028] the same measures were 86.4 nM and 15.5 nM.

On to `CCCCOCCOc1ccc(-c2cccc(/C=C/C(=O)Nc3ccc([S+]([O-])Cc4cncn4CC(C)C)cc3)c2)cc1` (centres unmarked) [WX029], for which the values for the IC50 on CCR2 and at CCR5 were 167 nM and 34.2 nM, respectively.

Turning to `CCCCOc1ccc(-c2ccc(Cl)c(/C=C/C(=O)Nc3ccc([S+]([O-])Cc4cncn4CC(C)C)cc3)c2)cc1` (centres unmarked) [WX030], the IC50 on CCR2 was found to be 300 nM; on CCR5 it was 15.9 nM. Consider `CCCCOCCOc1ccc(-c2cccc(/C=C/C(=O)Nc3ccc(S(=O)(=O)Cc4cncn4CCC)cc3)c2)cc1` [WX031], for which the half-inhibitory concentration (IC50) at CCR2 was 237 nM; at CCR5, 95.9 nM.

For the molecule `CCCCOCCOc1ccc(-c2ccc(OCC)c(/C=C/C(=O)Nc3ccc([S@@+]([O-])Cc4cncn4CCC)cc3)c2)cc1` [WX032], the results for the half-maximal inhibitory concentration (IC50) at CCR2 and at CCR5 were 28.6 nM and 8.1 nM, respectively.

Regarding `CCCCOCCOc1ccc(-c2ccc(OC(C)C)c(/C=C/C(=O)Nc3ccc([S@@+]([O-])Cc4cncn4CCC)cc3)c2)cc1` [WX033], the IC50 at CCR2 was found to be 56.3 nM; at CCR5 it was 11.8 nM. For `CCCCOCCOc1ccc(-c2ccc(OCC(C)C)c(/C=C/C(=O)Nc3ccc([S@@+]([O-])Cc4cncn4CCC)cc3)c2)cc1` [WX034] the same measures were 30 nM and 10 nM. The matching figures for `CCCCOCCOc1ccc(-c2cc(/C=C/C(=O)Nc3ccc([S@@+]([O-])Cc4cncn4CCC)cc3)c(OC)c(OC)c2)cc1` [WX035]: 215 nM and 16.1 nM.

Regarding `CCCCOCCOc1ccc(-c2ccc(OC)c(/C=C/C(=O)Nc3ccc([S@@+]([O-])Cc4cncn4CCC)cc3)c2)c(C)c1` [WX036], the IC50 at CCR2 came out at 64.9 nM; at CCR5 it was 13.3 nM.

In the case of `CCCn1cncc1C[S@+]([O-])c1ccc(NC(=O)/C=C/c2cccc(-c3ccc(N4CCCC4)cc3)c2)cc1` [WX037], the concentration for half-maximal inhibition (IC50) on CCR2 turned out to be 62.2 nM; at CCR5, 44.2 nM. The matching figures for `CCCCOCCOc1ccc(-c2ccc(OC)c(/C=C/C(=O)Nc3ccc([S+]([O-])Cc4c(C)ncn4CCC)cc3)c2)cc1` (centres unmarked) [WX038]: 42.5 nM and 12.5 nM. For `CCCCOCCOc1ccc(-c2ccc(OC)c(/C=C/C(=O)Nc3ccc([S@+]([O-])Cc4cncn4CC)cc3)c2)cc1` [WX039] the same measures were 70.1 nM and 760 nM. Take `CCCCOCCOc1ccc(-c2cc(F)c(OCC)c(/C=C/C(=O)Nc3ccc([S@+]([O-])Cc4c(C)ncn4CC)cc3)c2)cc1` [WX089]: the IC50 at CCR2 is 15 nM.
